# Source: US7198958B2, “Method for increasing hydrophilicity of fluorescent label compounds” (Arctic Diagnostics Oy, priority 2001, dated 2007)
# Legend:
# Assay type in all cases: physicochemical
# mouse IgG anti-AFP [1] = experiment: Labelling of mouse IgG anti-AFP with dipyrrometheneboron difluoride dyes; conditions: 10 fold excess of label, phosphate buffered saline pH 7.4, room temperature 2 h
# Procedure: To the solution of 1.5 mg (9.3 nmol) of mouse IgG anti-AFP in 400 μl phosphate buffered saline (10/150 mM, pH 7.4) a 10 fold excess (93 nmol) of compound 2, 4, 5 or 6 in anhydrous N,N-dimethylformamide was added. 40 μl of NaHCO3 (1 M, aq) was added and the mixture was incubated at room temperature for 2 h. The products were purified with NAP-5 gel filtration column (Amersham Pharmacia Biotech, Uppsala, Sweden) using phosphate buffered saline (50/150, 10 mM NaN3, pH 7.4) as eluent. The fast moving coloured fractions were collected. […] The labelling degrees of these protein conjugates (compound 4 and 6) were determined spectrophotometrically. Labelling degrees of 2.1 (compound 4) and 2.3 (compound 6) fluorophores per protein were obtained.
# mouse IgG anti-AFP [2] = experiment: Labelling of mouse IgG anti-AFP with rhodamine 6G labels; absorption spectrum of the conjugate; conditions: for normal absorption band of labelled mouse IgG anti-AFP: absorption spectrum of IgG conjugate in phosphate buffered saline pH 7.4; for additional absorption band of labelled mouse IgG anti-AFP (non-fluorescent aggregates, hydrophobic interactions): absorption spectrum of IgG conjugate, equi-intense band, absent in excitation spectrum
# Procedure: To the solution of 0.28 mg (1.75 nmol) of mouse IgG anti-AFP in 200 μl phosphate buffered saline (10/150 mM, pH 7.4) a 10 fold excess (17.5 nmol) of 5-carboxyrhodamine 6G succinimidyl ester (compound 15, Molecular Probes, Eugene, Oreg.) in anhydrous N,N-dimethylformamide or a 20 fold excess of Glu-Tau-succinimide derivative of 5-carboxyrhodamine 6G in acetonitrile water (reaction mixture of example 14, compound 17) was added. 40 μl of NaHCO3 (1 M, aq) was added and the mixtures were incubated at room temperature for 2 h. The products were purified with NAP-5 gel filtration column (Amersham Pharmacia Biotech, Uppsala, Sweden) using phosphate buffered saline (50/150, 10 mM NaN3, pH 7.4) as eluent. The fast moving coloured fractions were collected.
# This additional absorption originates from hydrophobic interactions between the fluorophores and protein or between the two fluorophores. […] These non-fluorescent aggregates are typical for hydrophobic xanthene-type dyes (rhodamines and fluoresceins).
# [3] = test system: 5′-aminomodified oligonucleotide; experiment: Labelling of oligonucleotide; fluorescence yield of labelled oligonucleotide; conditions: labelled oligonucleotides diluted to equimolar concentrations
# Procedure: To the solution of 5′-aminomodified oligonucleotide (17 bases, 28 μg, 5 nmol) in carbonate buffer (200 μl, 100 mM, pH 8.5) a 40 fold excess of labelling reagent (compound 2 or 4) in anhydrous DMF (50 μl) was added. Reaction mixture was incubated at 22° C. for 20 h. The labelled oligonucleotides were purifed by using reverse phase HPLC (RP-18 column) and gradient elution technique. Solvents were A: 2% acetonitrile in triethylammonium acetate buffer (50 mM, pH 7) and B: 70% acetonitrile in triethylammonium acetate buffer (50 mM, pH 7). The gradient started from 5% of solvent B and the amount of solvent B linearly raised to 40% in 25 minutes. Both dye-oligonucleotide conjugates (labelled with compound 2 or with compound 4) eluted between 18 to 22 minutes while the unlabelled oligonucleotide eluted at a timepoint of 10 minutes. The unbound labelling reagent was removed from the column by increasing the amount of solvent B to 100%.
# The concentrations of the labelled oligonucleotides were determined spectrophotometrically. […] The labelled oligonucleotides were diluted to equimolar concentrations and the fluorescence yields were determined. […] The higher fluorescence yield of the oligonucleotide labelled with compound 4 can be explained by increased hydrophilicity of the label compound and increased distance between the label and the oligonucleotide.
Compound,precipitation of the labelled proteins on labelling (mouse IgG anti-AFP [1]),normal absorption band of labelled mouse IgG anti-AFP (mouse IgG anti-AFP [2]) [nm],"additional absorption band of labelled mouse IgG anti-AFP (non-fluorescent aggregates, hydrophobic interactions) (mouse IgG anti-AFP [2])",fluorescence yield of labelled oligonucleotide compared with oligonucleotide labelled with compound 2 [3]
"4,4-difluoro-5-(2-thienyl)-1,3-dimethyl-4-bora-3a,4a-diaza-s-indacene-2-propionic acid succinimidyl ester [compound 2, reference compound]",almost complete precipitation of the labelled proteins,,,
"4,4-difluoro-(2-pyrrolyl)-1,3-dimethyl-4-bora-3a,4a-diaza-s-indacene-2-propionic acid succinimidyl ester [compound 5, reference compound]",almost complete precipitation of the labelled proteins,,,
"CCN=c1cc2oc3cc(NCC)c(C)cc3c(-c3ccc(C(=O)ON4C(=O)CCC4=O)cc3C(=O)O)c-2cc1C [compound 15, 5-carboxyrhodamine 6G succinimidyl ester, reference compound]",,530,504 nm,
"Glu-Tau-succinimide derivative of 4,4-difluoro-5-(2-pyrrolyl)-1,3-dimethyl-4-bora-3a,4a-diaza-s-indacene-2-propionic acid [compound 6]",proceeded without any problems,,,
"Glu-Tau-succinimide derivative of 4,4-difluoro-5-(2-thienyl)-1,3-dimethyl-4-bora-3a,4a-diaza-s-indacene-2-propionic acid [compound 4]",proceeded without any problems,,,one order of magnitude higher
Glu-Tau-succinimide derivative of 5-carboxyrhodamine 6G [compound 17],,530,absence of additional absorption band,
